Literature values, collected in patent US20050042289A1, “Tablets and methods for modified release of hydrophylic and other active agents” (Yamanouchi Pharma Technologies, Inc., priority 2003, published 2005).
Counter-ions that a name gives are not always drawn. Like-named read-outs stand apart in the source and are kept apart here.

Details: in water at 25° C., hemihydrate

water solubility (listed as Cevimeline hydrochloride): 766 mg/mL
water solubility (listed as methylspiro hydrochloride salt): ~800 mg/mL
water solubility (hydrochloride): about 1,400 mg/ml
SMILES: CC1OC2(CS1)CN1CCC2CC1 (racemic) [SNI-2011, (+/−)-cis-2-methylspiro [1,3-oxathiolane-5,3′-quinuclidine] hydrochloride, hemihydrate]
